Target: T1, Leucyl-cystinyl aminopeptidase (Rattus norvegicus, UniProt P97629)
T1 sequence (P97629 whole entry): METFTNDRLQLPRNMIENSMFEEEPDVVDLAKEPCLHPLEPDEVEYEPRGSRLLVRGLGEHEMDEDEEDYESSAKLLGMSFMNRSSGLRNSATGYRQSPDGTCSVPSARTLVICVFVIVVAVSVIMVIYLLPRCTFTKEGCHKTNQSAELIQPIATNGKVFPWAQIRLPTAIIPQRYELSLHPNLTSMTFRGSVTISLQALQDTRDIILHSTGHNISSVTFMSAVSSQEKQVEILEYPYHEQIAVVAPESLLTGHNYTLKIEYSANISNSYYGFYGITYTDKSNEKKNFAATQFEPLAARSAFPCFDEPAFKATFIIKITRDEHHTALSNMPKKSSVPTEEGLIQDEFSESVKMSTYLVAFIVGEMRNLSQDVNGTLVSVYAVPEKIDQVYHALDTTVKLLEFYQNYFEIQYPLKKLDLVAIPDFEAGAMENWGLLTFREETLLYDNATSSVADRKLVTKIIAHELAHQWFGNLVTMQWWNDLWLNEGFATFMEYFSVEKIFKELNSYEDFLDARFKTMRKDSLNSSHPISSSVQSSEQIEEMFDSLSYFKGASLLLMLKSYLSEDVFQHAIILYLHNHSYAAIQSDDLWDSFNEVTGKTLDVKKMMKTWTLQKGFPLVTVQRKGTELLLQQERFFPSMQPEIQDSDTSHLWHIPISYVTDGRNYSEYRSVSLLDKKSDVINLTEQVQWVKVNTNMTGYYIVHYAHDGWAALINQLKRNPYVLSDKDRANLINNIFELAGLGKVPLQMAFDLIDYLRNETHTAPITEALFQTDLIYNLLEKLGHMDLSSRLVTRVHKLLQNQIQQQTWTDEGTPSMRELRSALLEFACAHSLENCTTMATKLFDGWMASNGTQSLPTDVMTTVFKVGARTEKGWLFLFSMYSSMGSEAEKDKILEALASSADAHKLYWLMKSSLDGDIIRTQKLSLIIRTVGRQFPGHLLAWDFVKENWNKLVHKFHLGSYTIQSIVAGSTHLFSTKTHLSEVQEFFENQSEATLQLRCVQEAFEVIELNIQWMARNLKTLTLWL
Test: Inhibition Assay: The inventors have assumed that inhibition of nocturnal activity of placental leucine aminopeptidase (P-LAP), i.e. aminopeptidase that cleaves AVP, would maintain and/or increase an endogenous AVP level to enhance the antidiuretic effect, which would contribute to a decreased number of nocturnal voids, and have extensively studied compounds which inhibit P-LAP.

| SMILES | IC50 [nM] |
| --- | --- |
| CCCC1CC1c1ccnc(C[C@](O)(C(=O)O)[C@@H](N)CC(C)C)c1 (stereo partly drawn) | 19 |
| Cc1c(CCCC2CC2)ccnc1C[C@](O)(C(=O)O)[C@@H](N)CC(C)C | 370 |
| C=CCSC[C@H](N)[C@](O)(Cc1cc(CCCC2CC2)ccn1)C(=O)O | 20 |

These reach a lower IC50. Values come first.

| IC50 [nM] | SMILES |
| --- | --- |
| 15 | CC(C)C[C@H](N)[C@](O)(Cc1nccc2c1CCC(CC1CC1)C2)C(=O)O (stereo partly drawn) |
| 1.7 | CSC[C@H](N)[C@](O)(Cc1cc(CCCC2CC2)c(C)cn1)C(=O)O |
| 12 | COc1ccccc1CCc1ccnc(C[C@](O)(C(=O)O)[C@@H](N)CC(C)C)c1 |
| 11 | CCCCCc1ccnc(C[C@](O)(C(=O)O)[C@@H](N)CC(C)C)c1 |
| 0.58 | Cc1cnc(C[C@](O)(C(=O)O)[C@@H](N)CCC2CC2)cc1CCCC1CC1 |
